Assay results from patent US11613552B2, “Pharmaceutical agents, compositions, and methods relating thereto” (Alltech, Inc., priority 2017, dated 2023).

Key:
Insrβ/Pdk1/Akt/AS160 = test: Western blot of Insrβ/Akt/AS160 phosphorylation in differentiated C2C12 cells; format: cell-based, mouse; details: for pInsrβ levels: 200 nM insulin or 600 ppb Compound #43, prolonged treatment 60 minutes
Description: To differentiate the C2C12 cells, equal number of these myoblast cells were firstly seeded on 12-well plates (60,000 cells/well) and cultured in 10% FBS DMEM media at 37° C. for 5 days. These cells were replenished daily with fresh 10% FBS DMEM media. At day 5 after the culture, C2C12 cells were differentiated using 0.5% horse serum (Sigma)-containing DMEM media (differentiation media) for 7 days with daily replacement of fresh differentiation media, similar to previous described (Misu et al, Cell Metabolism 12, 483-495, 2010). At day 7 after the differentiation, differentiated C2C12 cells were rinsed with PBS twice and incubated in serum-free DMEM media overnight. Then these serum-starved cells were treated without (basal) or with insulin (200 nM), Compound #43 (600 ppb), or both insulin and Compound #43 in serum-free DMEM media at 37° C. for 5 and 60 minutes.
(§1) After the above treatments, cultured HepG2 cells or differentiated C2C12 cells were rinsed twice with ice-cold PBS and lysed in ice-cold RIPA buffer containing complete proteinase and phosphatase inhibitors (Thermo-Fisher Scientific, Waltham, Mass.) on ice for 30 min. Cell lysates were collected using a cell scraper and transfer pipette, and then centrifuged at 12000×g for 30 min at 4° C. to remove the DNA pellet and obtain the protein extract. Protein levels in the supernatant of these cell lysates were determined using the Pierce Micro-BCA protein assay kit (Thermo Scientific-Piece Biotechnology, Rockford, Ill.) according to the manufacturer's protocol.
One hundred micrograms of skeletal muscle or liver tissue proteins, five micrograms of HepG2 cell protein extracts, or eight micrograms of differentiated C2C12 cell protein extracts were subjected to SDS-PAGE gel separation and then transferred to PVDF membranes, as described previously (Reddy et al. 2008 Science). Membranes were blocked in a phosphate-buffered saline (PBS) containing 5% (w/v) of bovine serum albumin (Sigma, St. Louis, Mo.) and incubated with specific primary antibodies followed by the incubation with HRP-conjugated anti-mouse or anti-rabbit secondary antibodies (1:5000 dilution, Cell Signaling Inc.). All primary antibodies were purchased from Cell Signaling Inc, except the antibodies against β-tubulin (LI-COR bioscience). Positive signals on the membrane blots were detected using the Amersham's enhanced chemiluminescence Western Blotting Prime Detection reagents (GE Healthcare Lifescience, Pittsburgh, Pa.). Images of these luminescence signals on the membrane blots were captured using the LI-COR Odyssey Fc Image system (Lincoln, Nebr.). The same membrane blot was stripped and re-blotted with another antibody as described in the GE WB ECL-prime-detection protocol (GE healthcare Lifescience, Pittsburgh, Pa.). Protein band densities in the Western blots were determined using the NIH ImageJ software and then normalized by β-tubulin or ACTB protein level in each sample. Data are presented as mean±SEM of 3-5 samples per group.

Pdk1/Akt/Foxo1 = test: Western blot of Pdk1/Akt/Foxo1 in AML-12 cells under simulated diabetic conditions (8-CPT/Dex); format: cell-based, mouse; details: for pFoxo1 levels / total Foxo1 protein levels: 300 ppb Compound #43 or 10 nM insulin, 6 hr
Description: AML-12 cells were used to investigate whether Compound #43 can regulate Pdk1/Akt/Foxo1 signaling molecules in the liver cells following induction with diabetic stimuli. Amplified AML-12 cells were seeded on 6-well (1×10^6 cells/well) plates and cultured in 10% FBS but ITS/Dex-free DMEM/F12 media for 24 hr. Then these cells were washed twice with PBS to remove residual sera, and serum-starved in plain DMEM/F12 media overnight. These serum-starved AML12 cells were treated with the diabetic stimuli 8-CPT (0.1 mM) and Dex (0.5 μM) in combination, without (Control group) or with 10 nM insulin or Compound #43 (300 ppb) in serum-free plain DMEM/F12 media for 60 minutes, 90 minutes, and 6 hr, respectively.
as §1, with “above described” for “above”, “and AML-12” for “cells or differentiated C2C12”
One hundred micrograms of liver tissue proteins or five micrograms of total proteins from control- and compound(s)-treated HepG2 or AML-12 cells were subjected to SDS-PAGE gel separation and then transferred to PVDF membranes, as described previously (Reddy et al. 2008 Science). Membranes were blocked in a phosphate-buffered saline (PBS) containing 5% (w/v) of bovine serum albumin (Sigma, St. Louis, Mo.) and incubated with specific primary antibodies followed by the incubation with HRP-conjugated anti-mouse or anti-rabbit secondary antibodies (1:5000 dilution, Cell Signaling Inc.). All primary antibodies except Gapdh (Li-COR, Lincoln, Nebr.) were purchased from Cell Signaling Inc. Positive signals on the membrane blots were detected using the Amersham's enhanced chemiluminescence Western Blotting Prime Detection reagents (GE Healthcare Lifescience, Pittsburgh, Pa.). Images of these luminescence signals on the membrane blots were captured using the LI-COR Odyssey Fc Image system (Lincoln, Nebr.). The same membrane blot was stripped and re-blotted with another antibody as described in the GE WB ECL-prime-detection protocol (GE healthcare Lifescience, Pittsburgh, Pa.). Protein band densities in the Western blots were determined using the NIH ImageJ software and then normalized by Gapdh or Actb/ACTB level in each sample. Data are presented as mean±SEM of three samples per each group.

[1] = 200 nM insulin or 600 ppb Compound #43, 5 minutes
[2] = 200 nM insulin or 600 ppb Compound #43, 60 minutes

Compound | pInsrβ at Y1146 (Insrβ/Pdk1/Akt/AS160; [1]) | phosphorylated Akt protein levels (Insrβ/Pdk1/Akt/AS160; [1]) | phosphorylated Akt protein levels (Insrβ/Pdk1/Akt/AS160; [2]) | pInsrβ levels (Insrβ/Pdk1/Akt/AS160) | phosphorylated AS160 and total AS160 protein levels (Insrβ/Pdk1/Akt/AS160; 600 ppb alone, 5 minutes) | increase in phosphorylated AS160 at S588 (Insrβ/Pdk1/Akt/AS160; 600 ppb, 60 minutes) | pInsrβ protein levels (Insrβ/Pdk1/Akt/AS160; co-treatment insulin 200 nM and Compound #43 600 ppb, 5 minutes) | phosphorylated AS160 protein levels (Insrβ/Pdk1/Akt/AS160; co-treatment insulin and Compound #43, 5 and 60 minutes) | pAkt protein levels (Insrβ/Pdk1/Akt/AS160; co-treatment insulin and Compound #43, both tested time points) | pFoxo1 levels (Pdk1/Akt/Foxo1) | total Foxo1 protein levels (Pdk1/Akt/Foxo1) | phosphorylation of Pdk1, Akt and Foxo1 (Pdk1/Akt/Foxo1; 300 ppb, 60 minutes) | pFoxo1 protein levels (Pdk1/Akt/Foxo1; 300 ppb, 90 minutes) | pPdk1, pAkt, Akt and Foxo1 protein levels (Pdk1/Akt/Foxo1; 300 ppb, 90 minutes) | increase in phosphorylation of AS160 at S588 (Insrβ/Pdk1/Akt/AS160; 200 nM insulin, 5 min) | phosphorylated AS160 (Insrβ/Pdk1/Akt/AS160; 200 nM insulin, 60 minutes) | phosphorylation of Pdk1, Akt and Foxo1 (Pdk1/Akt/Foxo1; 10 nM insulin, 60 and 90 minutes)
C[Se]C[C@H]1O[C@@H](n2cnc3c(N)ncnc32)C(OC(C)=O)C1OC(C)=O (some centres unmarked) [Compound #43, Adenosine, 5′-Se-methyl-5′-selino-, 2′,3′-diacetate] | significant increase of pInsrβ at Y1146 | did not cause a significant increase of phosphorylated Akt protein levels | robust increased of phosphorylated Akt proteins levels | decrease in pInsrβ levels | did not affect the protein levels of phosphorylated AS160 and total AS160 | about 6 fold | tended to increase pInsrβ protein levels | significant increase of phosphorylated AS160 protein levels | significant increase of pAkt protein levels | significant increase in pFoxo1 levels | slight but significant decrease | significantly induced the phosphorylation of Pdk1, Akt and Foxo1 | significant increase in pFoxo1 protein levels | not significantly altered |  |  | 
insulin: insulin purchased from Sigma, positive control | significant increase of pInsrβ at Y1146 | significant increase of phosphorylated Akt | not observed | decrease in pInsrβ levels |  |  |  |  |  | increased pFoxo1 | slightly decreased total Foxo1 protein levels |  |  |  | about 2 fold | no obvious increase in phosphorylated AS160 | enhanced the phosphorylation of Pdk1, Akt and Foxo1
